# Test results taken from US7235577B1 (priority 2000, dated 2007).
# Key:
# [1] = test system: human T-lymphocytes; assay: In vitro toxicity, propidium iodide uptake, 48 h; format: cell-based
# Description: (§1) The in vitro toxicity was performed as follows.
# [2] = test system: L929 cells; assay: In vitro toxicity, propidium iodide uptake, 48 h; format: cell-based, murine
# Description: as §1
# [3] = test system: MEL cells; assay: In vitro toxicity, propidium iodide uptake, 48 h; format: cell-based, murine
# Description: as §1
# [4] = target: Kv1.1–1.5, Kv3.1, Kv4.2, Jurkat-SKCa, BKCa, hSKM1-Na, CRAC and lymphocyte chloride channels; assay: Selectivity on other cloned and native ion channels; format: cell-based; settings: all channels of the panel
# Description: (§2) L929 cells stably expressing mKv1.1, rKv1.2, mKv1.3, and mKv3.1 and MEL cells stably expressing hKv1.5 have been previously described (Grissmer 1994, Mol. Pharmacol. 45: 1227). hKv1.4 and rKv4.2 were stably expressed in LTK (HK1–7). Channel expression was induced 8–12 h before the electrophysiological experiments by 4 μM dexamethasone (Sigma). HEK-293 cells stably expressing the skeletal muscle sodium channel hSkM1 (SCN4A) were generated in the laboratory of Dr. F. Lehmann-Horn. HEK-293 cells stably expressing hSloα were obtained from Dr. Andrew Tinker (Center for Clinical Pharmacology, University College London). L929, MEL, LTK and HEK cells were maintained in DMEM containing 10% heat-inactivated fetal calf serum (Summit Biotechnology, Fort Collins, Colo.) and 250 μg/ml G418 (Life Technologies, Inc.). Rat basophilic leukemia (RBL) cells were maintained in Eagle's minimum essential medium with 2 mM L-glutamine and 10% fetal calf serum. CHO cell were maintained in F12K media (ATCC). Human leukemic Jurkat E6–1 cells were cultured in RPMI 1640 supplemented with 10% fetal calf serum and 1 mM L-glutamine. T84 cells were maintained in a 1:1 mixture of Ham's F12 medium and DMEM with 2.5 mM L-glutamine and 10% fetal calf serum.
# (§3) Recordings from the Jurkat SKCa channel were made in K^+ aspartate Ringer (Na^+ was replaced by K^+) with the same internal pipette solution. […]
# [5] = Hydrolytic stability by HPLC; settings: for stability against hydrolysis: over 72 h
# Description: A Waters 590 liquid chromatograph with a Waters 746 integrator and a Waters 486 UVN is detector, and a 25 cm Lichrospher RP18 column (5-μM particle size) was used. The mobile phase consisted of K2HPO4 25 mM, KH2PO4 30 mM, methanol at 262:13:725. The chromatographic separation was performed at 20° C. with a flow rate of 1.0 ml/min, the absorbance of the elluent was monitored at 210 nm.
# Hydrolysis profiles (10 μM compound with 20% acetonitrile) were carried out in Soerensen phosphate buffer (pH 7.4 and pH 5.0) in a total volume of 10 ml. 100 μl samples were collected 0, 1, 2, 3, 4, 5, 24, 48 and 72 hours after incubation, with shaking, in a waterbath at 37° C. and manually injected into the HPLC over Rheodyne 7125 system. For profiles at pH 1.0 artificial stomach fluid (DAB 9), containing 2 g NaCl, 3,2 g pepsin and 80 ml 1 M HCL in 1.0 L of water was used. After 0, 1 and 2 hours 400 μl of sample were collected and extracted three times with 500 μl of ethyl ether by vortexing. The combined extracts were than evaporated to dryness by passing nitrogen through the solution. The residue was than dissolved in 400 μl of mobile phase of which […] were injected in the HPLC.
# [6] = target: T1, Jurkat-SK (Homo sapiens, UniProt Q9H2S1); assay: Selectivity patch clamp, Jurkat SKCa channel; format: cell-based
# T1 construct: endogenous in cells; host or cells: Jurkat E6-1
# T1 sequence (Q9H2S1 whole entry): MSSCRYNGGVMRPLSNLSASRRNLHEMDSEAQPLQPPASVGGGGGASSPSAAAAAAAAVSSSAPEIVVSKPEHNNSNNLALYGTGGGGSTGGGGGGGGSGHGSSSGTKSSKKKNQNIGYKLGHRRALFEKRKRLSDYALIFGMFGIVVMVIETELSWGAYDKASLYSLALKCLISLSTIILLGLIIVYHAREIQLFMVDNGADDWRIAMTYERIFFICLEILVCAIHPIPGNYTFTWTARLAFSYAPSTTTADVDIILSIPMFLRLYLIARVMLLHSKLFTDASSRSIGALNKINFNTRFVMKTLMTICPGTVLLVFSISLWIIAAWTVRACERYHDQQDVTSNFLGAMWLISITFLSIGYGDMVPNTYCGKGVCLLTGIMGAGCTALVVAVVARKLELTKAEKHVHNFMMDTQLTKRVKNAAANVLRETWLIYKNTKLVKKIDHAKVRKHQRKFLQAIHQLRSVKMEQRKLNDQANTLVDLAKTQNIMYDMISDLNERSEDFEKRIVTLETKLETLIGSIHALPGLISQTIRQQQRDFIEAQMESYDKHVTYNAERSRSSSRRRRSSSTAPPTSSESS
# Description: as §2, §3
# [7] = target: human cytochrome P450 3A4 (CYP3A4) (Homo sapiens, UniProt P08684); assay: in vitro
# human cytochrome P450 3A4 (CYP3A4), sequence (P08684 whole entry): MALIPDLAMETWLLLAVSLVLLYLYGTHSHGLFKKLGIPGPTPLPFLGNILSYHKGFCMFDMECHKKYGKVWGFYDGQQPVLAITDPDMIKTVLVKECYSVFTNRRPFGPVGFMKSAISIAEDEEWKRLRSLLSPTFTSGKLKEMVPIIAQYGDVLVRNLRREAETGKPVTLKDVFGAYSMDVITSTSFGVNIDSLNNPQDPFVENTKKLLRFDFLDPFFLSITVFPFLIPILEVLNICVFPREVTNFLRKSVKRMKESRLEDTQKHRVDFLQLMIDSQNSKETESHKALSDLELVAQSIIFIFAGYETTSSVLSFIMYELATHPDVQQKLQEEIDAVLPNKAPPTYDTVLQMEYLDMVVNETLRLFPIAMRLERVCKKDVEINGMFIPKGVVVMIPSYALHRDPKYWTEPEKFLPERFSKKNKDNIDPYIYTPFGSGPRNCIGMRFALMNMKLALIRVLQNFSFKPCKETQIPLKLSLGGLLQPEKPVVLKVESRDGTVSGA
# Description: (§4) The test substances shown in Table 8 were evaluated for their inhibitory effect on the catalytic activity of human cytochrome P450 enzyme. Cytochrome P450 3A4 (CYP3A4) is involved in many drug-drug interactions and in many other pathways in the body including the catabolism of steroids and xenobiotics. Inhibition of this enzyme was measured in 96 well plates with 7-benzyloxy-4-trifluoro-methylcoumarin (BFC) as the substrate and cDNA-derived enzymes in microsomes prepared from baculovirus-infected insect cells.
# (§5) The inhibition study consisted of the determination of inhibition by the test substance on CYP3A4 catalytic activity. […] The compounds were prepared as 10 mM stock solutions in acetonitrile. Metabolism of the model substrate was assayed by the production of 7-hydroxy-4-trifluoromethylcoumarin metabolite. The metabolite was detected by fluorescence.
# (§6) Table 10 below provides a list of the name of enzymes examined, the catalog number of the microsomes used as a source of the enzyme, the concentration of the model substrate used, the amount of enzyme used, the final buffer concentration, and the positive control compound.
# (§7) Assays were conducted in 96 well microtiter plates. The BFC substrate was initially prepared in acetonitrile. […] Six wells were used for one test. […] For the positive controls, 12 wells in a row were used for one test. The positive control inhibitor/enzyme combination was examined in duplicate rows. Wells 1 to 8 contained serial 1:3 dilutions of the inhibitors. The highest inhibitor concentration were as described in the table above. Wells 9 and 10 contained no inhibitor and wells 11 and 12 were blanks for background fluorescence (stop solution added before the enzyme).
# (§8) After buffer, cofactors and inhibitor addition, the plates were pre-warmed to 37° C. Incubations were initiated by the addition of pre-warmed enzyme and substrate. The final cofactor concentrations were 1.3 mM NADP, 3.3 mM glucose-6-phosphate and 0.4 U/ml glucose-6-phosphate dehydrogenase. The final incubation volume was 0.2 ml. Incubations were carried out for 30 minutes [CYP3A4 (BFC)] and stopped by the addition of 0.075 ml of 80% acetonitrile-20% 0.5M Tris. Fluorescence per well was measured using a BMG FLUOstar fluorescence plate reader. The BFC metabolite 7-hydroxy-4-trifluoromethyl-coumarin was measured using an excitation wavelength of 410 nm and emission wavelength of 538 nm.
# [8] = target: CYP3A4 (Homo sapiens, UniProt P08684); assay: in vitro; settings: human
# CYP3A4, sequence (P08684 whole entry): as above
# Description: as §4, §5, §6, §7, §8
# [9] = test system: CHO cells; assay: In vitro toxicity, propidium iodide uptake, 48 h; format: cell-based, Chinese hamster
# Description: as §1
# [10] = target: Jurkat-CRAC; assay: Selectivity patch clamp, Jurkat CRAC channels; format: cell-based, human; settings: monovalent currents with Na+ as charge carrier
# Description: as §2, §3
# [11] = test system: COS-7 cells; assay: In vitro toxicity, propidium iodide uptake, 48 h; format: cell-based, African green monkey
# Description: as §1
structure (smiles),measurement,setting,value
"Clc1ccccc1C(c1ccccc1)(c1ccccc1)n1cccn1 [Compound T34, 1-[(2-Chlorophenyl)diphenylmethyl]-1H-pyrazole]",percentage of dead cells (PI uptake),[1]; 2 μM,6.2%
same,percentage of dead cells (PI uptake),[1]; 5 μM,7.0%
same,percentage of dead cells (PI uptake),[2]; 2 μM,4.6%
same,percentage of dead cells (PI uptake),[2]; 5 μM,7.5%
same,percentage of dead cells (PI uptake),[3]; 2 μM,6.2%
same,percentage of dead cells (PI uptake),[3]; 5 μM,5.8%
same,Kd,[4],≥ 5 µM
same,half-life,"[5]; artificial stomach fluid (DAB 9), pH 1",~45 min
same,stability against hydrolysis,"[5]; pH 5.0, 37° C.",completely stable
same,stability against hydrolysis,"[5]; pH 7.4, 37° C.",completely stable
same,stability against hydrolysis,[5]; pH 10,completely stable
same,Kd,[6],23 ± 2 µM
same,EC50 for inhibition of CYP3A4,[7]; T34 tested up to 10 μM,No inhibitory
same,Inhibition of CYP3A4 activity,[7]; up to 10 μM,does not inhibit the activity of CYP3A4
same,"inhibition at 30 min, 10 μM",[8],-77.5%
same,percentage of dead cells (PI uptake),[9]; 2 μM,5.6%
same,percentage of dead cells (PI uptake),[9]; 5 μM,4.7%
same,Block of Jurkat-CRAC (Ca),[10],no effect at 10 μM
same,percentage of dead cells (PI uptake),[11]; 2 μM,3.6%
same,percentage of dead cells (PI uptake),[11]; 5 μM,4.5%
